Assay results reported in US20210363110A1, “4-METHYLDIHYDROPYRIMIDINONE COMPOUNDS AND PHARMACEUTICAL USE THEREOF” (Japan Tobacco Inc., priority 2018, published 2021).
In brackets after ≈: the same amount, converted by molar mass. Like-named read-outs stand apart in the source and are kept apart here.

How the values were obtained:
[1] = Measurement of solubility (JP1, JP2, FaSSIF, FeSSIF); format: physicochemical; conditions: thermodynamic from solid, shaken 4 hours
Procedure: A 10 mM DMSO solution (10 μL) of test substance was added to a 96-well plate, and the mixture was concentrated and dried with a centrifugal evaporator (Genevac HT-4X). 200 μL of each solvent (JP1, JP2, FaSSIF, FeSSIF) (see Non Patent Literatures 29 and 30) was added to the well after evaporation. The mixture was shaken at room temperature at 2500 rpm for 4 hours. Then, the mixture was filtered in two parts with MultiScreen PCF filter (MERCK Millipore; MSSLBPC) to give samples (50 and 100 μL). 40 μL was collected from the sample obtained in the second filtration, and thereto was added acetonitrile (300 μL). After centrifugation (4000 g, 5 min.) of the mixture, a part of the supernatant was measured by LC-UV/MS (UPLC-Premier (waters)).

[2] = Metabolic stability in hepatocytes, dog; format: in vitro ADME; conditions: residual ratio of unreacted substance, 1×10^6 cells/mL
Procedure: A test solution was prepared by diluting 10 mM DMSO solution of a test substance with acetonitrile by 20 times.
Human and animal cryopreserved hepatocyte (BIOIVT; Human (IVT-X008000), Rat (IVT-M00005), Monkey (IVT-M00305), Dog (IVT-M00205)) were adjusted with William's Medium E (SIGMA; W1878) to 1×10^6 cells/mL of a cell suspension, which was then added to a 96-well plate. Then, 1% of the solution of a test substance prepared was added to the reaction system, and the metabolic reaction was initiated. At a designated time, 0.1% formic acid-acetonitrile was added thereto, and the reaction was terminated.
(§1) The sample after termination of the reaction was separated by centrifugation (1400 g, 20 min.), and then the supernatant was measured by LC/MS (UPLC-SQD (waters)) to calculate a residual ratio of unreacted substances.

[3] = Metabolic stability in liver microsomes, dog; format: in vitro ADME; conditions: residual ratio of unreacted substance, 0.2 mg/mL microsomes, NADPH generating system
Procedure: (§2) A test solution was prepared by diluting 10 mM DMSO solution of a test substance with acetonitrile by 100 times.
(§3) Human and animal liver microsomes (SEKISUI XENOTECH; Human (H2610), Rat (R1000), Mouse (M1000), Monkey (P2000), Dog (D1000)) were adjusted with potassium phosphate buffer (pH 7.4) to 0.2 mg/mL in the reaction system. Then, 1% of the solution of a test substance prepared was added to the reaction system. Thereto was added an NADPH generating system (prepared according to the method of Non Patent Literature 28), and the metabolic reaction was initiated. At a designated time, 0.1% formic acid-acetonitrile/water (3:1) was added thereto, and the reaction was terminated.
as §1

[4] = Metabolic stability in liver microsomes, human; format: in vitro ADME; conditions: residual ratio of unreacted substance, 0.2 mg/mL microsomes, NADPH generating system
Procedure: as §2, §3, §1

[5] = pH 1.2, simulated gastric fluid, JP1, room temperature, read-out: Solubility JP1
[6] = pH 6.8, aqueous buffer, JP2, room temperature, read-out: Solubility JP2
[7] = FaSSIF, room temperature, read-out: Solubility FaSSIF
[8] = FeSSIF, room temperature, read-out: Solubility FeSSIF

Compound | solubility at 4 h [1, 5] [µM] | solubility at 4 h [1, 6] [µM] | solubility at 4 h [1, 7] [µM] | solubility at 4 h [1, 8] [µM] | Metabolic stability in hepatocytes at 240 min., Dog [2] [%] | Metabolic stability in liver microsomes at 60 min., Dog [3] [%] | Metabolic stability in liver microsomes at 60 min., Human [4] [%]
CC(C)C1=CN(C23CC(C(=O)O)(C2)C3)C(=O)N[C@@]1(C)c1ccc([C@@H]2C[C@H]2C(C)(C)C)c(Cl)c1 [Compound (1), 3-{(S)-4-[4-((1R,2R)-2-tert-Butyl-cyclopropyl)-3-chloro-phenyl]-5-isopropyl-4-methyl-2-oxo-3,4-dihydro-2H-pyrimidin-1-yl}bicyclo[1.1.1]pentane-1-carboxylic acid] | < 0.8 | 451 (≈ 212 µg/mL) | 470 (≈ 221 µg/mL) | ≥ 475 | 88 | 98 | 99
CC[C@H](C)C1=CN(C23CC(C(=O)O)(C2)C3)C(=O)N[C@@]1(C)c1ccc([C@@H]2C[C@H]2C(C)(C)C)c(Cl)c1 [Compound (2), 3-{(S)-5-((S)-sec-Butyl)-4-[4-((1R,2R)-2-tert-butyl-cyclopropyl)-3-chloro-phenyl]-4-methyl-2-oxo-3,4-dihydro-2H-pyrimidin-1-yl}bicyclo[1.1.1]pentane-1-carboxylic acid] | < 0.7 | 447 (≈ 217 µg/mL) | 445 (≈ 216 µg/mL) | 463 (≈ 225 µg/mL) | 78 | 95 | 96
